Reference: PubChem BioAssay (NCI)
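Following 48 hours of exposure in 96-well plates, responses at five concentrations were used to interpolate endpoints linearly. The concentration for 50% growth inhibition is given as GI50. At the TGI there is no net growth.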

Key:
Test in all cases: NCI anticancer screen, dose series, 48 h
[1] = system: TK-10 renal
[2] = system: A549 NSCLC
[3] = system: MDA-MB-435
[4] = system: SF-268 CNS
[5] = system: NCI-H460 lung
[6] = system: IGROV1 ovarian
[7] = system: RXF 393 renal
[8] = system: EKVX NSCLC

Row | Structure (SMILES) | TGI [1] [µM] | TGI [2] [µM] | TGI [3] [µM] | TGI [4] [µM] | TGI [5] [µM] | TGI [6] [µM] | TGI [7] [µM] | TGI [8] [µM] | GI50 [1] [µM] | GI50 [2] [µM] | GI50 [3] [µM] | GI50 [4] [µM] | GI50 [5] [µM] | GI50 [6] [µM] | GI50 [8] [µM]
1 | O=c1c2ccccc2[nH]n1Cc1ccccc1 | > 100 | > 100 | > 100 | > 100 | > 100 | > 100 | > 100 | > 100 |  |  |  |  |  |  | 
2 | CCc1c2c(cc3c1CC1(C3)Cc3cc4c(c(C(=O)OC)c3C1)CCCC4)CCCC2 (centres undefined) | > 100 | > 100 | > 100 |  |  | > 100 | > 100 | 83.9 |  |  |  |  |  |  | 
3 | N#CC1(C#N)NC(c2ccccc2)C(C#N)(C#N)NC1c1ccccc1 (centres undefined) | > 100 | > 100 | > 100 | > 100 | > 100 | > 100 | > 100 | > 100 |  |  |  |  |  |  | 
4 | OC1c2ccccc2CCC1CN1CCN(CCOC(c2ccc(F)cc2)c2ccc(F)cc2)CC1 (centres undefined) | 42.4 | > 100 | 80.1 | 39 | 48 | 61.9 | 19.3 |  |  |  |  |  |  |  | 
5 | O=P1(c2ccccc2)c2ccccc2-c2ccccc21 | > 100 | > 100 | > 100 | > 100 |  | > 100 | > 100 | > 100 |  |  |  |  |  |  | 
6 | C=CC(O)(CBr)CCC(Br)C(=C)C (centres undefined) | > 10 | > 10 | > 10 | > 10 | > 10 | > 10 | > 10 | > 10 |  |  |  |  |  |  | 
7 | COC(=O)N1CC(=O)C(C(=O)NC23CC4CC(CC(C4)C2)C3)C1 (centres undefined) | > 100 | > 100 | > 100 | > 100 | > 100 | > 100 | > 100 |  |  |  |  |  |  |  | 
8 | CSC1NC(c2ccccc2)=C(C#N)C(=O)N1C1OCC(OC(C)=O)C(OC(C)=O)C1OC(C)=O (centres undefined) | > 100 | > 100 | > 100 | > 100 | > 100 | > 100 | > 100 | > 100 |  |  |  |  |  |  | 
9 | COc1cc(CSc2ccc(O)cc2)cc(OC)c1OC | > 100 | > 100 | > 100 | > 100 | > 100 | > 100 | > 100 | > 100 |  |  |  |  |  |  | 
10 | COc1ccc2c3c(Nc4cccc(/C(C)=N\O)c4)[nH]c4ccccc4c-3c(N=O)c2c1 | > 100 | > 100 | > 100 | > 100 | > 100 | 84.5 |  | 93.2 | 80.3 | 27.6 | 30.9 | > 100 | 33.6 | 26.1 | 20.5
11 | CC(=O)Nc1ccc2nc(-c3ccccn3)c(-c3ccccn3)nc2c1 | > 100 | > 100 | > 100 | > 100 | > 100 | > 100 | > 100 | > 100 |  |  |  |  |  |  | 
12 | NS(=O)(=O)c1nnc(NC(=O)C23CC4CC(CC(C4)C2)C3)s1 | > 100 | > 100 | > 100 | > 100 | > 100 |  | > 100 | > 100 |  |  |  |  |  |  | 
13 | COc1ccc(/C=C2/CSCC3=C2NC(=S)NC3c2ccc(OC)c(OC)c2OC)c(OC)c1OC (centres undefined) | 75.5 | 95.9 | 61.4 | > 100 | > 100 | 44.7 | 52.9 | > 100 |  |  |  |  |  |  | 
14 | COC1CCON1C(=O)c1ccccc1 (centres undefined) | > 10 | > 10 | > 10 | > 10 | > 10 | > 10 | > 10 | > 10 |  |  |  |  |  |  | 
15 | S=C(NCCc1ccccn1)N/N=C/c1ccccn1 | > 100 | 7.68 | > 100 | > 100 | 4.66 | 0.634 | 12.2 | > 27.7 |  |  |  |  |  |  | 
16 | CC(Oc1ccccc1Cl)C(=O)NN1C(=O)CC(=O)N(c2ccccc2)C1=S (centres undefined) | > 100 | > 100 | > 100 | > 100 | > 100 | > 100 | > 100 | > 100 |  |  |  |  |  |  | 
17 | COc1ccc([N+](=O)[O-])c2c(NCCCN(C)C)ccnc12 | 70.5 | 23.8 | 23.1 | 28.9 | 5.63 | 4.85 | 8.32 | 22.8 |  |  |  |  |  |  | 
18 | COc1ccc(/C=C/C(=O)/C=C/c2ccc(OC)cc2OC)c(OC)c1 | 47.3 | 46.3 | 8.24 | 33.7 | 24 | 36.1 | 37.1 | 33.3 |  |  |  |  |  |  | 
19 | Cc1ccc(C2(c3ccc(Cl)cc3)c3ccccc3C3=NCCN32)cc1 (centres undefined) | 18.5 | 25.3 | 10.1 | 31.5 | 20.7 | 14.9 | 10.9 | 28.9 |  |  |  |  |  |  | 
20 | c1cc(-c2ccc(-c3ccc(-c4ccc(-c5ccncc5)o4)cc3)o2)ccn1 | 31.2 | 35.7 | 33.4 | 38.1 | 35.3 | 35.8 | > 100 | 45 |  |  |  |  |  |  | 

Row | Structure (SMILES) | TGI [1] [µM] | TGI [2] [µM] | TGI [3] [µM] | TGI [4] [µM] | TGI [5] [µM] | TGI [6] [µM] | TGI [7] [µM] | TGI [8] [µM] | GI50 [1] [µM] | GI50 [2] [µM] | GI50 [3] [µM] | GI50 [4] [µM] | GI50 [5] [µM] | GI50 [6] [µM] | GI50 [8] [µM]
21 | CC1CN=C(NS(=O)(=O)c2cc(C(=O)Nc3ccc(Cl)cc3)c(Cl)cc2S)NN1 (centres undefined) | > 100 | > 100 | 73.1 | 52.1 | > 100 | > 100 |  | > 100 |  |  |  |  |  |  | 
22 | CCOC(=O)CC(c1ccccc1)C(C)(C(=O)OCC)C(=O)OCC (centres undefined) | > 100 | > 100 |  | > 100 | > 100 | > 100 | 60.9 | > 100 |  |  |  |  |  |  | 
23 | CCCCCCCCCCCCOP(=O)(O)OP(=O)(O)OCC1OC(n2ccc(N)nc2=O)CC1O (centres undefined) | > 100 | > 100 | > 100 | > 100 | > 100 | > 100 | > 100 | > 100 |  |  |  |  |  |  | 
24 | N#CC(N=Nc1ccccc1C(=O)O)C(N)=O (centres undefined) | > 100 | > 100 | > 100 |  | > 100 |  | > 100 | > 100 |  |  |  |  |  |  | 
25 | CC12C3C4C1C1C2C3C41CO (centres undefined) | > 100 | > 100 | > 100 |  | > 100 | > 100 | > 100 | > 100 |  |  |  |  |  |  | 
26 | COCCN(CCNC(=O)c1cccc2c(N)c3cccc(C)c3nc12)CCOC | 16.6 | 8.48 | 11 | 2.3 | 7.11 | 7.25 | 5.96 | 7.7 |  |  |  |  |  |  | 
27 | C1CSCCSCCCSC2CCCCC2SC1 (centres undefined) | > 100 | > 100 | > 100 | > 100 | > 100 | > 100 |  | > 100 |  |  |  |  |  |  | 
28 | COc1cc(C)c(/C=C2/N=C(c3ccccc3)OC2=O)c([N+](=O)[O-])c1OC | > 100 | > 100 | > 100 | > 100 | > 100 | > 100 | > 100 | > 100 |  |  |  |  |  |  | 
29 | O=C(CN(C(=O)OC12CC3CC(CC(C3)C1)C2)C(=O)OC12CC3CC(CC(C3)C1)C2)Oc1ccc([N+](=O)[O-])cc1 | > 100 | > 100 | > 100 | > 100 | > 100 | > 100 | > 100 | > 100 |  |  |  |  |  |  | 
30 | Cc1c(C)c(C)c(Cn2[nH]c(=O)n(C)c2=O)c(C)c1C | > 100 | > 100 | > 100 | > 100 | > 100 | > 100 |  | > 100 |  |  |  |  |  |  | 
31 | Nc1ccc2[nH]c(-c3cccc(C(F)(F)F)c3)cc(=O)c2c1 | > 100 | > 100 | 88.6 |  | > 100 | > 100 |  | > 100 |  |  |  |  |  |  | 
32 | Cc1ccc(C(=O)Nc2ccc(CP(=O)(O)O)cc2)cc1NC(=O)c1cccc(N)c1 | > 100 | > 100 | > 100 | > 100 |  | > 100 | > 100 | > 100 |  |  |  |  |  |  | 
33 | CC(=O)Oc1cc(S(=O)(=O)Nc2n[nH]c(Nc3ccc(C)cc3)n2)c(S)cc1Cl | > 100 | > 100 | > 100 |  | > 100 | > 100 |  | > 100 |  |  |  |  |  |  | 
34 | CCCCn1c(CSc2ccc(Cl)cc2)c(C(=O)OCC)c2cc(OC)c(Br)cc21 | > 100 | > 100 | > 100 | > 100 | > 100 | > 100 |  | > 100 |  |  |  |  |  |  | 
35 | COC(=O)C1CCC(=O)N1C(c1cc(OC)c(OC)c(OC)c1)c1cc(OC)c(OC)c(OC)c1 (centres undefined) | > 100 | > 100 | > 100 | > 100 | > 100 | > 100 |  | > 100 |  |  |  |  |  |  | 
36 | COc1cc(C2C3=C(COC3=O)Oc3cc4c(cc32)OCO4)ccc1O (centres undefined) | > 100 | > 100 |  | > 66.4 | > 100 | > 100 | > 100 | > 100 |  |  |  |  |  |  | 
37 | COC(=O)C1CCN(C(=O)OC(C)(C)C)CC1 | > 100 | > 100 | > 100 | > 100 | > 100 | > 100 |  | > 100 |  |  |  |  |  |  | 
38 | COc1ccc(OC)c(NCC(=O)Nn2cnc3ccc(S(=O)(=O)Nc4cc(OC)ccc4OC)cc3c2=O)c1 | > 100 | > 100 | > 100 | > 100 | > 100 | > 100 |  | > 100 |  |  |  |  |  |  | 
39 | Clc1cccc(-c2sc(-c3ccsc3)cc2Cc2ccsc2)c1 | > 10 | > 10 | > 10 | > 10 |  | > 10 | > 10 | > 10 |  |  |  |  |  |  | 
